Experimental data as given in patent US11414416B1, “Compounds and uses thereof” (Foghorn Therapeutics Inc., priority 2019, dated 2022).

target: Nanoluciferase-BRD9 fusion protein (Homo sapiens (Human), UniProt Q9H8M2); experiment: SYO1 BRD9 NanoLuc degradation assay; assay type: cell-based; settings: Table 5B; SYO-1 cells expressing 3×FLAG-NLuc-BRD9, 6 hours; read-out: SYO1 BRD9-NanoLuc degradation IC50
Outline: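 Degradation was read as loss of nanoluciferase signal (Nano-Glo) after 6 h compound exposure in a stable SYO-1 line carrying 3×FLAG-NLuc-BRD9 (8000 cells/well). Normalised between DMSO (high) and a 1 μM known BRD9 degrader (low).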

Sequence of Nanoluciferase-BRD9 fusion protein (Q9H8M2 whole entry, the tested form may be a part): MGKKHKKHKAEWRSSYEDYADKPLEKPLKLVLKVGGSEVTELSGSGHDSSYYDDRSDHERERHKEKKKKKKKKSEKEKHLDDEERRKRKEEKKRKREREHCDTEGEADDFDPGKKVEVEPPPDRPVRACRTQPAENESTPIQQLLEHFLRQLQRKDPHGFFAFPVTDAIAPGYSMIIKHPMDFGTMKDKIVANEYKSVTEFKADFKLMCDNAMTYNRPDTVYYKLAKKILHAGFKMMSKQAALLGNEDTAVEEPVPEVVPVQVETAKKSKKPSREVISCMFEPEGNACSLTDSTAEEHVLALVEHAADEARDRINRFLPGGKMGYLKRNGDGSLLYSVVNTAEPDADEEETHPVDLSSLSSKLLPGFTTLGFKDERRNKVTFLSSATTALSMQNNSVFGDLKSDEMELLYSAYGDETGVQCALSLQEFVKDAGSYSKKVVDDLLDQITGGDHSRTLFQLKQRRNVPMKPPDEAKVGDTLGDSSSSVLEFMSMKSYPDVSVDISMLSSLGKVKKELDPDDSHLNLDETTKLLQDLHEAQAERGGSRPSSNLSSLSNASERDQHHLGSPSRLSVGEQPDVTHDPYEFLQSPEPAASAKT

DC50 | Structure (SMILES)
< 10 nM | COc1cc(-c2cn(C)c(=O)c(C)c2C)cc(OC)c1CN1CCN(CCC2CCN(c3ccc4c(c3)CN(C3CCC(=O)NC3=O)C4=O)CC2)CC1 (stereo not shown) [Compound D362]
< 10 nM | COc1cc(-c2cn(C)c(=O)c3cncn23)cc(OC)c1CN1CC(CN2CCC3(CC2)CN(c2ccc4c(c2)CN(C2CCC(=O)NC2=O)C4=O)C3)C1 (stereo not shown) [Compound D363]
100 to 1000 nM | CNC(=O)NCc1cc(-c2cc(OC)c(CN3CC(CN4CCC5(CC4)CN(c4ccc6c(c4)C(=O)N(C4CCC(=O)NC4=O)C6)C5)C3)c(OC)c2)cn(C)c1=O (stereo not shown) [Compound D364]
10 to 100 nM | COc1cc(-c2cn(C)c(=O)n3ccnc23)cc(OC)c1CN1CC(CN2CCC3(CC2)CN(c2ccc4c(c2)C(=O)N(C2CCC(=O)NC2=O)C4)C3)C1 (stereo not shown) [Compound D365]
< 10 nM | COc1cc(-c2cn(C)c(=O)c3ccnnc23)cc(OC)c1CN1CCC(CN2CCC3(CC2)CC(Oc2ccc4c(c2)CN(C2CCC(=O)NC2=O)C4=O)C3)CC1 (stereo not shown) [Compound D366]
< 10 nM | COc1cc(-c2cn(C)c(=O)c3cnncc23)cc(OC)c1CN1CCC(CN2CCC3(CC2)CC(Oc2ccc4c(c2)CN(C2CCC(=O)NC2=O)C4=O)C3)CC1 (stereo not shown) [Compound D367]
< 10 nM | COc1cc(-c2cn(C)c(=O)c3cnncc23)cc(OC)c1CN1CCC(CN2CCC3(CC2)CC(Oc2ccc4c(c2)C(=O)N(C2CCC(=O)NC2=O)C4)C3)CC1 (stereo not shown) [Compound D368]
< 10 nM | COc1cc(-c2cn(C)c(=O)c3cnn(C)c23)cc(OC)c1CN1CC(CN2CCC3(CC2)CN(c2ccc4c(c2)CN(C2CCC(=O)NC2=O)C4=O)C3)C1 (stereo not shown) [Compound D369]
< 10 nM | COc1cc(-c2cn(C)c(=O)c3cn(C)nc23)cc(OC)c1CN1CC(CN2CCC3(CC2)CN(c2ccc4c(c2)CN(C2CCC(=O)NC2=O)C4=O)C3)C1 (stereo not shown) [Compound D370]
< 10 nM | COc1cc(-c2cn(C)c(=O)c3nc(O)ccc23)cc(OC)c1CN1CCC(CN2CCC3(CC2)CC(Oc2ccc4c(c2)CN(C2CCC(=O)NC2=O)C4=O)C3)CC1 (stereo not shown) [Compound D371]

same assay, conditions: Table 5C; SYO-1 cells expressing 3×FLAG-NLuc-BRD9, 6 hours; read-out: SYO1 BRD9-NanoLuc degradation IC50

Structure (SMILES) | DC50
COc1cc(C(=O)N2CCC3(CC2)CN(c2ccc4c(c2)C(=O)N(C2CCC(=O)NC2=O)C4)C3)cc(-c2cn(C)c(=O)c3cnccc23)c1 (stereo not shown) [Compound D380] | 10 to 100 nM
COc1cc(-c2cn(C)c(=O)c3cnccc23)cc(OC)c1CN1CCC2(CC1)CN(c1ccc3c(c1)C(=O)N(C1CC(=O)NC1=O)C3=O)C2 (stereo not shown) [Compound D383] | > 1000 nM
COc1cc(-c2cn(C)c(=O)c3cnccc23)cc(OC)c1CN1CCC2(CC1)CN(c1ccc3c(c1)C(=O)N(C1CCCNC1=O)C3)C2 (stereo not shown) [Compound D389] | > 1000 nM
COc1cc(-c2cn(C)c(=O)c3cnccc23)cc(OC)c1CN1CCC2(CC1)CN(c1ccc3c(c1)C(=O)N(C1CCC(=O)NC1)C3)C2 (stereo not shown) [Compound D390] | > 1000 nM
COc1cc(-c2cn(C)c(=O)c3cnccc23)cc(OC)c1CN1CCC2(CC1)CN(c1ccnc(C(=O)NC3CCC(=O)NC3=O)n1)C2 (stereo not shown) [Compound D391] | 100 to 1000 nM
COc1cc(-c2cn(C)c(=O)c3cnccc23)cc(OC)c1CN1CCC2(CC1)CN(c1cccc(C(=O)NC3CCC(=O)NC3=O)c1)C2 (stereo not shown) [Compound D392] | 10 to 100 nM
COc1cc(-c2cn(C)c(=O)c3cnccc23)cc(OC)c1CN1CCC(c2cnn(C3CCC(=O)NC3=O)c2)CC1 (stereo not shown) [Compound D393] | 10 to 100 nM
COc1cc(-c2cn(C)c(=O)c3cnccc23)cc(OC)c1CN1CCC(c2cc(=O)n(C3CCC(=O)NC3=O)c(C)n2)CC1 (stereo not shown) [Compound D394] | > 1000 nM
COc1cc(-c2cn(C)c(=O)c3cn(C)nc23)cc(OC)c1CN1CCN(CCC2CCN(c3ccc4c(c3)C(=O)N(C3CCC(=O)NC3=O)C4)CC2)CC1 (stereo not shown) [Compound D400] | < 10 nM
CCCn1cc(-c2cc(OC)c(CN3CCC4(C3)CN(c3ccc5c(c3)C(=O)N(C3CCC(=O)NC3=O)C5)C4)c(OC)c2)cc(C(F)F)c1=O (stereo not shown) [Compound D401] | < 10 nM
COc1cc(-c2cn(C)c(=O)c3cn(C)nc23)cc(OC)c1CN1CC(CN2CCC3(CC2)CN(c2ccc4c(c2)C(=O)N(C2CCC(=O)NC2=O)C4)C3)C1 (stereo not shown) [Compound D402] | < 10 nM
COc1cc(-c2cc(C(F)F)c(=O)n(C)c2)cc(OC)c1CN1CCC2(C1)CN(c1ccc3c(c1)C(=O)N(C1CCC(=O)NC1=O)C3)C2 (stereo not shown) [Compound D403] | < 10 nM
C=CCn1cc(-c2cc(OC)c(CN3CCC4(C3)CN(c3ccc5c(c3)C(=O)N(C3CCC(=O)NC3=O)C5)C4)c(OC)c2)cc(C(F)F)c1=O (stereo not shown) [Compound D404] | < 10 nM
COc1cc(-c2cn(C)c(=O)c3cn(C)nc23)cc(OC)c1CN1CCC(CN2CCC3(CC2)CN(c2ccc4c(c2)C(=O)N(C2CCC(=O)NC2=O)C4)C3)CC1 (stereo not shown) [Compound D405] | < 10 nM
COc1cc(-c2cc(C(F)F)c(=O)n(C)c2)cc(OC)c1CN1CCC2(C1)CN(c1ccc3c(c1)C(=O)N(C1CCC(=O)NC1=O)C3=O)C2 (stereo not shown) [Compound D406] | < 10 nM
COc1cc(-c2cc(C(F)F)c(=O)n(C)c2)cc(OC)c1CN1CCC(CN2CCC3(CC2)CN(c2ccc4c(c2)C(=O)N(C2CCC(=O)NC2=O)C4)C3)CC1 (stereo not shown) [Compound D407] | < 10 nM
COc1cc(-c2cc(C(F)F)c(=O)n(C)c2)cc(OC)c1CN1CCC2(C1)CN(c1ccc3c(c1)CN(C1CCC(=O)NC1=O)C3=O)C2 (stereo not shown) [Compound D408] | < 10 nM
COc1cc(-c2cc(C(F)F)c(=O)n(C)c2C)cc(OC)c1CN1CCC2(C1)CN(c1ccc3c(c1)C(=O)N(C1CCC(=O)NC1=O)C3)C2 (stereo not shown) [Compound D409] | < 10 nM
COc1cc(-c2cc(C(F)F)c(=O)n(C)c2C)cc(OC)c1CN1CCC(CN2CCC3(CC2)CN(c2ccc4c(c2)C(=O)N(C2CCC(=O)NC2=O)C4)C3)CC1 (stereo not shown) [Compound D410] | < 10 nM
COc1cc(-c2cn(C)c(=O)c3cnn(C)c23)cc(OC)c1CN1CCC2(CC1)CN(c1ccc3c(c1)CN(C1CCC(=O)NC1=O)C3=O)C2 (stereo not shown) [Compound D411] | < 10 nM
COc1cc(-c2cn(C)c(=O)c3cn(C)nc23)cc(OC)c1CN1CCC2(CC1)CN(c1ccc3c(c1)CN(C1CCC(=O)NC1=O)C3=O)C2 (stereo not shown) [Compound D412] | < 10 nM
COc1cc(-c2cn(C)c(=O)c3cnn(C)c23)cc(OC)c1CN1CCC2(CC1)CN(c1ccc3c(c1)C(=O)N(C1CCC(=O)NC1=O)C3=O)C2 (stereo not shown) [Compound D413] | < 10 nM

The next lines start with the values.

DC50 | Structure (SMILES)
< 10 nM | COc1cc(-c2cn(C)c(=O)c3cnccc23)cc(OC)c1CN1CC(Oc2ccc3c(c2)C(=O)N(C2CCC(=O)NC2=O)C3=O)C1 (stereo not shown) [Compound D372]
< 10 nM | COc1cc(-c2cn(C)c(=O)c3cnccc23)cc(OC)c1CN1CCC2(CC1)CN(c1ccc3c(c1)C(=O)N(C1CCC(=O)NC1=O)C3=O)C2 (stereo not shown) [Compound D373]
< 10 nM | COc1cc(-c2cn(C)c(=O)c3cnccc23)cc(OC)c1CN1CCC2(CC1)CN(c1ccc3c(c1)CN(C1CCC(=O)NC1=O)C3=O)C2 (stereo not shown) [Compound D374]
< 10 nM | COc1cc(-c2cn(C)c(=O)c3cnccc23)cc(OC)c1CN1CC(Oc2ccc3c(c2)CN(C2CCC(=O)NC2=O)C3=O)C1 (stereo not shown) [Compound D375]
< 10 nM | COc1cc(-c2cn(C)c(=O)c3cnccc23)cc(OC)c1CN1CC(Oc2ccc3c(c2)C(=O)N(C2CCC(=O)NC2=O)C3=O)C1C (stereo not shown) [Compound D376]
< 10 nM | COc1cc(-c2cn(C)c(=O)c3cnccc23)cc(OC)c1CN1CCC2(CC1)CN(c1ccc3c(c1)C(=O)N(C1CCC(=O)NC1=O)C3)C2 (stereo not shown) [Compound D377]
< 10 nM | COc1cc(-c2cn(C)c(=O)c3cnccc23)cc(OC)c1CN1CC(Oc2ccc3c(c2)C(=O)N(C2CCC(=O)NC2=O)C3)C1 (stereo not shown) [Compound D378]
< 10 nM | COc1cc(-c2cn(C)c(=O)c3cnccc23)cc(OC)c1CN1CCC(CN2CCC3(CN(c4ccc5c(c4)CN(C4CCC(=O)NC4=O)C5=O)C3)C(F)(F)C2)CC1 (stereo not shown) [Compound D379]
< 10 nM | COc1cc(-c2cn(C)c(=O)c3cnccc23)cc(OC)c1CN1CC(Oc2ccc3c(c2)C(=O)N(C2CCC(=O)N(COC(=O)[C@@H](N)C(C)C)C2=O)C3=O)C1 (stereo partly shown) [Compound D381]
< 10 nM | COc1cc(-c2cn(C)c(=O)c3cnccc23)cc(OC)c1CN1CCC2(CC1)CN(c1ccc3c(c1)C(=O)N(C1CC(=O)NC1=O)C3)C2 (stereo not shown) [Compound D382]
< 10 nM | COc1cc(-c2cn(C)c(=O)c3cnccc23)cc(OC)c1CN1CC(Oc2ccc3c(c2)CN(C2CCC(=O)N(COC(=O)[C@@H](N)C(C)C)C2=O)C3=O)C1 (stereo partly shown) [Compound D384]
< 10 nM | CCc1cc(-c2cn(C)c(=O)c3cnccc23)cc(OC)c1CN1CC(Oc2ccc3c(c2)C(=O)N(C2CCC(=O)NC2=O)C3=O)C1 (stereo not shown) [Compound D385]
< 10 nM | CCc1cc(-c2cn(C)c(=O)c3cnccc23)cc(OC)c1CN1CC(Oc2ccc3c(c2)C(=O)N(C2CCC(=O)NC2=O)C3=O)C1C (stereo not shown) [Compound D386]
< 10 nM | COc1cc(CN2CCC3(CC2)CN(c2ccc4c(c2)C(=O)N(C2CCC(=O)NC2=O)C4)C3)cc(-c2cn(C)c(=O)c3cnccc23)c1 (stereo not shown) [Compound D387]
< 10 nM | COc1cc(-c2cn(C)c(=O)c3cnccc23)cc(OC)c1CN1CCC2(CC1)CN(c1ccc3c(c1)C(=O)N(C1CCCC(=O)NC1=O)C3=O)C2 (stereo not shown) [Compound D388]
< 10 nM | COc1cc(-c2cn(C)c(=O)c3cnccc23)cc(OC)c1CN1CCC2(CC1)CN(c1cc(C(=O)NC3CCC(=O)NC3=O)ncn1)C2 (stereo not shown) [Compound D395]
< 10 nM | COc1cc(-c2cc(C)c(=O)n(C)c2C)cc(OC)c1CN1CCC2(C1)CN(c1ccc3c(c1)C(=O)N(C1CCC(=O)NC1=O)C3)C2 (stereo not shown) [Compound D396]
< 10 nM | COc1cc(-c2cc(C)c(=O)n(C)c2C)cc(OC)c1CN1CCC(CN2CCC3(CC2)CN(c2ccc4c(c2)C(=O)N(C2CCC(=O)NC2=O)C4)C3)CC1 (stereo not shown) [Compound D397]
< 10 nM | COc1cc(-c2cc(C(F)F)c(=O)n(C)c2)cc(OC)c1CN1CCN(CCC2CCN(c3ccc4c(c3)C(=O)N(C3CCC(=O)NC3=O)C4=O)CC2)CC1 (stereo not shown) [Compound D398]
< 10 nM | COc1cc(-c2cc(C(F)F)c(=O)n(C)c2)cc(OC)c1CN1CCN(CCC2CCN(c3ccc4c(c3)C(=O)N(C3CCC(=O)NC3=O)C4)CC2)CC1 (stereo not shown) [Compound D399]
